Test results as given in US9156796B2, “Benzoimidazole-carboxylic acid amide derivatives as APJ receptor modulators” (SANOFI, priority 2013, dated 2015).

What follows are compounds tested against T1, human apelin receptor (Homo sapiens, UniProt P35414) (assay: Determination of agonism on the human apelin receptor by a calcium fluorescence assay (FLIPR)). Details: HEK293 cells stably transfected with human apelin receptor and Giaq protein, Fluo-4 calcium fluorescence, read-out: EC50 (APJ agonism).
T1 construct: expressed in transfected cells
T1 sequence (P35414 1-380): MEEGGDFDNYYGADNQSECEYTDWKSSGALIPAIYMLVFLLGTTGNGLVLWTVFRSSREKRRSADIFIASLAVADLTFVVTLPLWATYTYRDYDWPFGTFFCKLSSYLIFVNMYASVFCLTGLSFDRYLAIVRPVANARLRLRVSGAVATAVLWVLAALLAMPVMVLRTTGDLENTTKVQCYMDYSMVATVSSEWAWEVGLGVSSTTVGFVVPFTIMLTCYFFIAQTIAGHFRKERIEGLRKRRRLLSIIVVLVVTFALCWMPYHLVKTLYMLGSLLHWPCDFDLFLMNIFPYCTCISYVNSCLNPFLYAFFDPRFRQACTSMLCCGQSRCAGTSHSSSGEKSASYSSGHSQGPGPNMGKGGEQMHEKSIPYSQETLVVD
Assay type: cell-based
Outline: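 Agonist EC50s come from peak intracellular calcium transients recorded by FLIPR Tetra, scaled to the 1 μM apelin-13 maximum per plate. Test system: HEK293 stably transfected with human apelin receptor plus Giaq, Fluo-4-loaded (4 μM, 1 h, 37 °C, pH 7.4 buffer with probenecid); ≥7 concentrations, triplicates.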

Row | Compound | EC50 [nM]
1 | CCC(CC)n1c(Cc2cccs2)nc2cc(C(=O)N[C@@H](CC(C)C)C(=O)N3CCC(N4CCC(C)CC4)CC3)ccc21 [Example 282, 1-(1-Ethyl-propyl)-2-thiophen-2-ylmethyl-1H-benzoimidazole-5-carboxylic acid [(S)-3-methyl-1-(4-methyl-[1,4′]bipiperidinyl-1′-carbonyl)-butyl]-amide] | 430
2 | CCC(CC)n1c(Cc2cccs2)nc2cc(C(=O)N[C@@H](CC(C)C)C(=O)Nc3ccc(CN4CCC(C)CC4)cc3)ccc21 [Example 283, 1-(1-Ethyl-propyl)-2-thiophen-2-ylmethyl-1H-benzoimidazole-5-carboxylic acid {(S)-3-methyl-1-[4-(4-methyl-piperidin-1-ylmethyl)-phenylcarbamoyl]-butyl}-amide] | 4500
3 | CCCN(CCC)C1CCN(C(=O)[C@H](CC(C)C)NC(=O)c2ccc3c(c2)nc(Cc2cccs2)n3C(CC)CC)CC1 [Example 284, 1-(1-Ethyl-propyl)-2-thiophen-2-ylmethyl-1H-benzoimidazole-5-carboxylic acid [(S)-1-(4-dipropylamino-piperidine-1-carbonyl)-3-methyl-butyl]-amide] | 252
4 | CCCN1CCC(NC(=O)[C@H](CC(C)C)NC(=O)c2ccc3c(c2)nc(Cc2cccs2)n3C(CC)CC)CC1 [Example 285, 1-(1-Ethyl-propyl)-2-thiophen-2-ylmethyl-1H-benzoimidazole-5-carboxylic acid [(S)-3-methyl-1-(1-propyl-piperidin-4-ylcarbamoyl)-butyl]-amide] | 295
5 | CCC(CC)n1c(Cc2cccs2)nc2cc(C(=O)N[C@@H](CC(C)C)C(=O)NCC3CCCN(Cc4ccccc4)C3)ccc21 (stereo partly drawn) [Example 286, 1-(1-Ethyl-propyl)-2-thiophen-2-ylmethyl-1H-benzoimidazole-5-carboxylic acid {(S)-1-[(1-benzyl-piperidin-3-ylmethyl)-carbamoyl]-3-methyl-butyl}-amide] | 1100
6 | CCC(CC)n1c(Cc2cccs2)nc2cc(C(=O)N[C@@H](CC(C)C)C(=O)NCC(C)(C)CN3CCCCCC3)ccc21 [Example 287, 1-(1-Ethyl-propyl)-2-thiophen-2-ylmethyl-1H-benzoimidazole-5-carboxylic acid [(S)-1-(3-azepan-1-yl-2,2-dimethyl-propylcarbamoyl)-3-methyl-butyl]-amide] | 408
7 | CCC(CC)n1c(Cc2cccs2)nc2cc(C(=O)N[C@@H](CC(C)C)C(=O)NC3CCN(Cc4c(OC)cccc4OC)CC3)ccc21 [Example 288, 1-(1-Ethyl-propyl)-2-thiophen-2-ylmethyl-1H-benzoimidazole-5-carboxylic acid {(S)-1-[1-(2,6-dimethoxy-benzyl)-piperidin-4-ylcarbamoyl]-3-methyl-butyl}-amide] | 512
8 | CCC(CC)n1c(Cc2cccs2)nc2cc(C(=O)N[C@@H](CC(C)C)C(=O)NCCC3CCCCN3C)ccc21 (stereo partly drawn) [Example 289, 1-(1-Ethyl-propyl)-2-thiophen-2-ylmethyl-1H-benzoimidazole-5-carboxylic acid {(S)-3-methyl-1-[2-(1-methyl-piperidin-2-yl)-ethylcarbamoyl]-butyl}-amide] | 341
9 | CCC(CC)n1c(Cc2cccs2)nc2cc(C(=O)N[C@@H](CC(C)C)C(=O)NCC3CCN(Cc4ccccc4)C3)ccc21 (stereo partly drawn) [Example 290, 1-(1-Ethyl-propyl)-2-thiophen-2-ylmethyl-1H-benzoimidazole-5-carboxylic acid {(S)-1-[(1-benzyl-pyrrolidin-3-ylmethyl)-carbamoyl]-3-methyl-butyl}-amide] | 506
10 | CCC(CC)n1c(Cc2cccs2)nc2cc(C(=O)N[C@@H](CC(C)C)C(=O)NCC3CCN(CCc4ccccc4)C3)ccc21 (stereo partly drawn) [Example 291, 1-(1-Ethyl-propyl)-2-thiophen-2-ylmethyl-1H-benzoimidazole-5-carboxylic acid {(S)-3-methyl-1-[(1-phenethyl-pyrrolidin-3-ylmethyl)-carbamoyl]-butyl}-amide] | 408
11 | CCC(CC)n1c(Cc2cccs2)nc2cc(C(=O)N[C@@H](CC(C)C)C(=O)NC3CC4CCCC(C3)N4C)ccc21 (stereo partly drawn) [Example 292, 1-(1-Ethyl-propyl)-2-thiophen-2-ylmethyl-1H-benzoimidazole-5-carboxylic acid [(S)-3-methyl-1-(9-methyl-9-aza-bicyclo[3.3.1]non-3-ylcarbamoyl)-butyl]-amide] | 1220
12 | CCC(CC)n1c(Cc2cccs2)nc2cc(C(=O)N[C@@H](CC(C)C)C(=O)NC3CCN(c4ccccn4)CC3)ccc21 [Example 293, 1-(1-Ethyl-propyl)-2-thiophen-2-ylmethyl-1H-benzoimidazole-5-carboxylic acid [(S)-3-methyl-1-(3,4,5,6-tetrahydro-2H-[1,2′]bipyridinyl-4-ylcarbamoyl)-butyl]-amide] | 2640
13 | CCC(CC)n1c(Cc2cccs2)nc2cc(C(=O)N[C@@H](CC(C)C)C(=O)NCCCN3CC(C)OC(C)C3)ccc21 (stereo partly drawn) [Example 294, 1-(1-Ethyl-propyl)-2-thiophen-2-ylmethyl-1H-benzoimidazole-5-carboxylic acid {(S)-1-[3-(2,6-dimethyl-morpholin-4-yl)-propylcarbamoyl]-3-methyl-butyl}-amide] | 722
14 | CCC(CC)n1c(Cc2cccs2)nc2cc(C(=O)N[C@@H](CC(C)C)C(=O)NC3CCN(Cc4ccccn4)CC3)ccc21 [Example 295, 1-(1-Ethyl-propyl)-2-thiophen-2-ylmethyl-1H-benzoimidazole-5-carboxylic acid [(S)-3-methyl-1-(1-pyridin-2-ylmethyl-piperidin-4-ylcarbamoyl)-butyl]-amide] | 1830
15 | CCC(CC)n1c(Cc2cccs2)nc2cc(C(=O)N[C@@H](CC(C)C)C(=O)N3CCC(N4CCc5ccccc5C4)CC3)ccc21 [Example 296, 1-(1-Ethyl-propyl)-2-thiophen-2-ylmethyl-1H-benzoimidazole-5-carboxylic acid {(S)-1-[4-(3,4-dihydro-1H-isoquinolin-2-yl)-piperidine-1-carbonyl]-3-methyl-butyl}-amide] | 1030
16 | CCC(CC)n1c(Cc2cccs2)nc2cc(C(=O)N[C@@H](CC(C)C)C(=O)NCC3CCCN(C)C3)ccc21 (stereo partly drawn) [Example 297, 1-(1-Ethyl-propyl)-2-thiophen-2-ylmethyl-1H-benzoimidazole-5-carboxylic acid {(S)-3-methyl-1-[(1-methyl-piperidin-3-ylmethyl)-carbamoyl]-butyl}-amide] | 390
17 | CCC(CC)n1c(Cc2cccs2)nc2cc(C(=O)N[C@@H](CC(C)C)C(=O)NC3CCN(Cc4ccncc4)CC3)ccc21 [Example 298, 1-(1-Ethyl-propyl)-2-thiophen-2-ylmethyl-1H-benzoimidazole-5-carboxylic acid [(S)-3-methyl-1-(1-pyridin-4-ylmethyl-piperidin-4-ylcarbamoyl)-butyl]-amide] | 1260
18 | CCC(CC)n1c(Cc2cccs2)nc2cc(C(=O)N[C@@H](CC(C)C)C(=O)N3CCC(N4CCCCC4)C3)ccc21 (stereo partly drawn) [Example 299, 1-(1-Ethyl-propyl)-2-thiophen-2-ylmethyl-1H-benzoimidazole-5-carboxylic acid [(S)-3-methyl-1-(3-piperidin-1-yl-pyrrolidine-1-carbonyl)-butyl]-amide] | 776
19 | CCC(CC)n1c(Cc2cccs2)nc2cc(C(=O)N[C@@H](CC(C)C)C(=O)N3CCC(N4CCC(C)CC4)C3)ccc21 (stereo partly drawn) [Example 300, 1-(1-Ethyl-propyl)-2-thiophen-2-ylmethyl-1H-benzoimidazole-5-carboxylic acid {(S)-3-methyl-1-[3-(4-methyl-piperidin-1-yl)-pyrrolidine-1-carbonyl]-butyl}-amide] | 732
20 | CCC(CC)n1c(Cc2cccs2)nc2cc(C(=O)N[C@@H](CC(C)C)C(=O)NC3CCN(Cc4cccc(F)c4)CC3)ccc21 [Example 301, 1-(1-Ethyl-propyl)-2-thiophen-2-ylmethyl-1H-benzoimidazole-5-carboxylic acid {(S)-1-[1-(3-fluoro-benzyl)-piperidin-4-ylcarbamoyl]-3-methyl-butyl}-amide] | 2460
21 | CCC(CC)n1c(Cc2cccs2)nc2cc(C(=O)N[C@@H](CC(C)C)C(=O)NCC3CCCN(CCc4ccccc4)C3)ccc21 (stereo partly drawn) [Example 302, 1-(1-Ethyl-propyl)-2-thiophen-2-ylmethyl-1H-benzoimidazole-5-carboxylic acid {(S)-3-methyl-1-[(1-phenethyl-piperidin-3-ylmethyl)-carbamoyl]-butyl}-amide] | 386
22 | CCC(CC)n1c(Cc2cccs2)nc2cc(C(=O)N[C@@H](CC(C)C)C(=O)NCC3CCCN(CC)C3)ccc21 (stereo partly drawn) [Example 303, 1-(1-Ethyl-propyl)-2-thiophen-2-ylmethyl-1H-benzoimidazole-5-carboxylic acid {(S)-1-[(1-ethyl-piperidin-3-ylmethyl)-carbamoyl]-3-methyl-butyl}-amide] | 214
23 | CCC(CC)n1c(Cc2cccs2)nc2cc(C(=O)N[C@@H](CC(C)C)C(=O)NCC3CCN(CC(C)C)C3)ccc21 (stereo partly drawn) [Example 304, 1-(1-Ethyl-propyl)-2-thiophen-2-ylmethyl-1H-benzoimidazole-5-carboxylic acid {(S)-1-[(1-isobutyl-pyrrolidin-3-ylmethyl)-carbamoyl]-3-methyl-butyl}-amide] | 461
24 | CCC(CC)n1c(Cc2cccs2)nc2cc(C(=O)N[C@@H](CC(C)C)C(=O)NCC3CCN(CCOC)C3)ccc21 (stereo partly drawn) [Example 305, 1-(1-Ethyl-propyl)-2-thiophen-2-ylmethyl-1H-benzoimidazole-5-carboxylic acid ((S)-1-{[1-(2-methoxy-ethyl)-pyrrolidin-3-ylmethyl]-carbamoyl}-3-methyl-butyl)-amide] | 319
